Results from PMC7377376, “Drug targeting CYP2E1 for the treatment of early-stage alcoholic steatohepatitis” (PLoS ONE, 2020).

Legend:
[1] = test system: ethanol-fed Wistar rats; assay: Serum liver enzyme activities of ethanol-fed rats; type: in vivo, rat; conditions: for reduction of ethanol effect on γ-GT activity: UDCA 40 mg/kg; for reduction of ethanol effect on ALT activity: average over 0.4/4/40 mg/kg b.w.; for γ-GT activity above the reference value of healthy animals: highest concentration
Description: (§1) A total of 68 female Wistar rats (Institute of Pharmacology and Biochemistry Breeding House, Minsk, Belarus) aged 80–90 days and weighting 180–200 g at the beginning of the experiments were used in the study. Each rat group (n = 6–8) was housed in a separate cage and had free access to the liquid diet during the full study period. Prior to the study, the animals were habituated for seven days to the cage conditions and experimental handling. The rats were maintained in a controlled experimental environment (20–25°C, 40–50% humidity, 12 h light per day, room with a 12-h light/dark cycle).
(§2) Rats were divided into ten groups characterized by the diet and the test compounds (S1 Table). Group 1 is the first control group in which a normal solid standard diet was fed for 12 weeks. All other groups received the liquid Lieber-DeCarli (LDC) diet (S2 Table), which combines food and drink in a liquid manner. It was prepared by ssniff Spezialdiäten GmbH, Soest. The addition of maltodextrin to this diet should compensate the pure caloric effect of ethanol, whereby 1.77 g maltodextrin replaces 1 g ethanol. The calorie value of both the control and ethanol diets was the same: 35% calories from fat, 11% from carbohydrates, 18% from protein and 36% from ethanol.
(§3) In the first two weeks rats of all groups–with the exception of group 1 –were fed with LDC diet plus maltodextrin in an appropriate amount to adapt the animals to the liquid diet. Group 2 is the second control group in which the isocaloric diet was administered for further 10 weeks until the end of the experiment. […] The test compounds I-ol, I-an and UDCA were dissolved in a 0.8% aqueous HPMC gel to obtain the appropriate concentrations: (1) I-ol with 0.4, 4 and 40 mg/kg b. w. (2) I-an with 0.4, 4 and 40 mg/kg b. w. (3) UDCA with 40 mg/kg b. w. Rats of group 2 and 3 received only HPMC as a placebo. The LDC diets were fed ad libitum and their intake per cage was controlled daily. The corresponding bottles were stored in the cages from 08:00 a. m. until 06:00 p. m. and replaced by drinking water bottles overnight until 08:00 a. m. in the next morning. Every day at the same time, the test compounds or only HPMC were administered intragastrically by oral gavage with an administration volume of 2 ml/kg b. w. After ten weeks of treatment, the rats were anesthetized with an intraperitoneal injection of a 5% pentobarbital solution and then killed by aorta scarification. Their livers were dissected and liver pieces frozen and stored in liquid nitrogen. A part of the liver was fixed for histological investigations. Blood was collected before sacrifice, centrifuged for serum preparation and finally stored in liquid nitrogen.
(§4) The serum marker enzyme activities, alanine aminotransferase (ALT), aspartate aminotransferase (AST), alkaline phosphatase (AP) and gamma-glutamyltransferase (γ-GT) as well as triglycerides and bilirubin were measured according to manufacturer’s instructions using standard commercial kits from Lachema (PLIVA-Lachema Diagnostika, Czech Republic). Serum concentrations of leptin, adiponectin and TNF-alpha were analyzed using commercial ELISA test kits: BioCat GmbH (Heidelberg, German) for adiponectin and TNF-alpha, BioVendor Laboratory Medicine Inc. (Brno, Czech Republic) for leptin. Insulin serum concentration was determined by radioimmunoassay using the commercially available kit RIO-insulin-PG-J125 (IBOCH, Minsk, Belarus). Glucose serum concentration was determined by the Accu-Check Active blood glucose testing system from Roche-Diagnostics GmbH (Mannheim, Germany).

[2] = test system: ethanol-fed Wistar rats; assay: Liver histopathology of ethanol-fed rats; type: in vivo, rat; conditions: I-ol, I-an in their higher concentrations; UDCA 40 mg/kg b.w.; H.E. staining
Procedure: as §3
Liver samples were selected randomly, fixed in Bouin`s solution and embedded in paraffin wax. Histological sections were prepared and stained with haematoxylin and eosin. Other liver samples were fixed in a solution containing formaldehyde, paraformaldehyde and glutaraldehyde with a subsequent post-fixation in 1% osmium containing phosphate buffer pH 7.4 for further analysis. Liver tissue was embedded in a mixture of butyl-methyl-metacrylates. Semifine sections of 0.5–1.0 μm were stained with Asur II, methylen blue and basic fuxine.

[3] = test system: ethanol-fed Wistar rats; assay: Liver and serum lipid parameters of ethanol-fed rats; type: in vivo, rat; conditions: for liver cholesterol decrease compared to disease group / reduction of ethanol effect on hepatic cholesterol / reduction of ethanol effect on hepatic triglycerides / liver phospholipids decrease compared to disease group / liver triglycerides decrease compared to disease group / reduction of ethanol effect on hepatic phospholipids: liver; for reduction of ethanol effect on hepatic triglycerides: average over 0.4/4/40 mg/kg b.w. (UDCA 40 mg/kg), oral, 10 weeks; for liver phospholipids decrease compared to disease group / liver triglycerides decrease compared to disease group / reduction of ethanol effect on hepatic phospholipids / reduction of ethanol effect on serum triglycerides / serum triglycerides decrease compared to disease group: average over doses (UDCA 40 mg/kg)
Description: as §1, §2, §3, §4
Lipids were extracted with a chloroform: methanol mixture (2:1 v/v). Neutral lipids and phospholipids were separated into classes by thin-layer chromatography (TLC). Lipid fractions (triglycerides, cholesterol and its fractions) were measured in extracts from scraped spots by routine methods using the appropriate commercial kits. […]

[4] = First pharmacokinetic study of I-ol, calculated blood concentration; type: in vivo; conditions: rat
Procedure: Following these studies, we performed a single pharmacokinetic study with I-ol to get evidence for a possible further development of this lead compound. The complete study is summarized in the Word document " First pharmacokinetic study of I-ol".
Assuming a maximum oral bioavailability of 0.1 percent for I-ol, the following comparison results:
The peroral intake of 0.4 mg I-ol/kg body weight of the rat leads to a blood concentration of 6.3 ng I-ol/ml, which corresponds to 26.3 nmol I-ol/l. An average body weight of 230 g and a blood volume of 14.5 ml was assumed. The molecular mass of I-ol is 240 g/mol. An oral bioavailability of 0.1% was used despite reasonable doubt about the finality of this amount.

[5] = target: rat liver microsomes; assay: Difference spectra titration of rat liver microsomes; conditions: one specific binding site
Procedure: Liver microsomes were prepared as follows: Rat liver was homogenized in 33 mM TRIS*HCl pH 7.4, 33 mM KCl, 1 mM EDTA, 250 mM sucrose and protease inhibitors. The homogenate was centrifuged first at 600 g then at 6,500 g for 10 minutes to separate nuclei and mitochondria. Supernatant was centrifuged at 105,000 g for 60 minutes. The pellet (microsomal fraction) was dissolved in 10 mM TRIS*HCl pH 7.4, 10 mM EDTA, 50% glycerol and stored at -80°C [20].
Difference spectra measurements were performed in tandem cuvettes at 37°C. The sample as well as the reference chamber contained rat liver microsomes in 100 mM HEPES buffer (pH 7.6). The baseline was recorded between 365 and 500 nm. Varying concentrations of 12-Imidazolyl-dodecan-1-yl-phosphocholine (5–95 μM) were added to rat microsomes. Difference spectra were obtained after the system reached equilibrium.

[6] = average over doses (UDCA 40 mg/kg)

Row | Compound | reduction of ethanol effect on γ-GT activity [1] [%] | reduction of ethanol effect on ALT activity [1] [%] | ALT activity decrease compared to disease group [1, 6] [%] | AST activity decrease compared to disease group [1, 6] [%] | reduction of ethanol effect on AST activity [1, 6] [%] | γ-GT activity decrease compared to disease group [1, 6] [%] | γ-GT activity above the reference value of healthy animals [1] [%] | AST activity above the reference value of healthy animals ([1]; lowest concentration) [%] | liver morphology (histopathology, in words) [2] | liver cholesterol decrease compared to disease group ([3]; UDCA 40 mg/kg) | reduction of ethanol effect on hepatic cholesterol ([3]; UDCA 40 mg/kg) | reduction of ethanol effect on hepatic triglycerides [3] [%] | liver phospholipids decrease compared to disease group [3] [%] | liver triglycerides decrease compared to disease group [3] [%] | reduction of ethanol effect on hepatic phospholipids [3] | reduction of ethanol effect on serum VLDL ([3]; serum, UDCA 40 mg/kg) [%] | serum VLDL decrease compared to disease group ([3]; serum, average over doses) [%] | reduction of ethanol effect on serum triglycerides ([3]; serum) [%] | serum triglycerides decrease compared to disease group ([3]; serum) [%] | also measured
1 | CCCCCCCCCCCCn1ccnc1 [I-an, 1-Imidazolyldodecane] | 60 | 59 | 24 | 11 | 48 | 33 | 12 | 6 | almost complete restoration of the physiological liver morphology | 11% | 82% | 73 | 20 | 41 | completely eliminated | 59 | 18 | 83 | 41 | AP activity decrease compared to disease group [1, 6]: 29%; reduction of ethanol effect on alkaline phosphatase (AP) activity ([1]; on average (UDCA 40 mg/kg)): 96%; reduction of ethanol effect on serum LDL cholesterol ([3]; serum, UDCA 40 mg/kg): 70%; serum LDL cholesterol decrease compared to disease group ([3]; serum, average over doses): 24%
2 | OCCCCCCCCCCCCn1ccnc1 [I-ol] | 68 | 70 | 29 | 14 | 60 | 37 | 28 | 6 | almost complete restoration of the physiological liver morphology | no influence | no influence | 71 | 13 | 40 | 65% | 55 | 17 | 91 | 44 | maximum oral bioavailability ([4]; oral, assumed value from first pharmacokinetic study): ≤ 0.1%; calculated blood concentration ([4]; peroral 0.4 mg/kg body weight, bioavailability 0.1% assumed): 26.3 nmol I-ol/l; calculated blood concentration ([4]; peroral 0.4 mg/kg body weight, bioavailability 0.1%, blood volume 14.5 ml, body weight 230 g assumed): 6.3 ng I-ol/ml; calculated blood concentration ([4]; peroral 4 mg/kg, bioavailability 0.1% assumed): 263 nmol/L; calculated blood concentration ([4]; peroral 40 mg/kg, bioavailability 0.1% assumed): 2630 nmol/L; Kd [5]: 0.578 µM; ALT activity (in words) ([1]; lowest concentration): complete restoration of the basic activity; AP activity decrease compared to disease group ([1]; lowest concentration): 27%; reduction of ethanol effect on alkaline phosphatase (AP) activity ([1]; lowest concentration): 87%; reduction of ethanol effect on serum LDL cholesterol ([3]; serum, lowest concentration): 61%
